{
  "source": "patent US9120805B2",
  "about": "“Substituted pyrrolo[1,2-A]pyrazin-1-ones and pyrazolo[1,5-A]pyrazin-4-ones as inhibitors of tankyrase and poly(ADP-ribose)polymerase activity” (Merck Patent GmbH, priority 2012, dated 2015)",
  "origin": "cited, not measured here",
  "key": {"β-catenin": {"test_system": "β-catenin", "conditions": "literature (Huang et al., 2009); by increasing AXIN1 and AXIN2 levels; cited from earlier work"}, "DLD-1-cancer cells": {"test_system": "DLD-1-cancer cells", "conditions": "literature (Huang et al., 2009); cited from earlier work"}},
  "data": [
    {"smiles": "Oc1nc(-c2ccc(C(F)(F)F)cc2)nc2c1CSCC2", "note": "[XAV939]", "values": [
      {"measurement": "Wnt-stimulated accumulation of β-catenin", "setting": "β-catenin", "result": "blocked Wnt-stimulated accumulation of β-catenin"},
      {"measurement": "growth of DLD-1-cancer cells", "setting": "DLD-1-cancer cells", "result": "inhibits growth"}
    ]}
  ]
}
